Species: Rattus norvegicus
Test: Open TG-GATES - Regimen: Single
Format: toxicity, organism-based, Sprague-Dawley
Set-up: regimen Single, gender Male, age 6 weeks
Settings: in vivo, po, route gavage; for gamma-GTP / ALP / ALT / AST / BUN / CRE / Ca / Cl / DBIL / GLC / IP / K / LDH / PL / RALB / TBIL / TC / TP / Na: tissue Plasma; for APTT / Bas / Eos / Fbg / Hb / Ht / Lym / MCH / MCHC / MCV / Mono / PT / Plat / RBC / Ret / WBC: tissue Blood; for KIDNEY_L / KIDNEY_R / KIDNEY_TOTAL: tissue Kidney; for LIVER: tissue Liver
[1] = 10 mg/kg, 24 h, dose level High

SMILES: C#C[C@]1(O)CC[C@H]2[C@@H]3CCc4cc(O)ccc4[C@H]3CC[C@@]21C [ETHINYL ESTRADIOL]
- gamma-GTP (3 mg/kg, 24 h, dose level Middle): 1 IU/L
- TERMINAL_BW (10 mg/kg, 3 h, dose level High): 198.2 g
- APTT (10 mg/kg, 3 h, dose level High): 15.3 s
- Bas (10 mg/kg, 3 h, dose level High): 0%
- Eos (10 mg/kg, 3 h, dose level High): 0.8%
- Fbg (10 mg/kg, 3 h, dose level High): 270.4 mg/dL
- Hb (10 mg/kg, 3 h, dose level High): 13 g/dL
- Ht (10 mg/kg, 3 h, dose level High): 39.6%
- Lym (10 mg/kg, 3 h, dose level High): 78.6%
- MCH (10 mg/kg, 3 h, dose level High): 21.4 pg
- MCHC (10 mg/kg, 3 h, dose level High): 32.9%
- MCV (10 mg/kg, 3 h, dose level High): 65.2 fL
- Mono (10 mg/kg, 3 h, dose level High): 3%
- PT (10 mg/kg, 3 h, dose level High): 12.2 s
- Plat (10 mg/kg, 3 h, dose level High): 115.1 x10_4/uL
- RBC (10 mg/kg, 3 h, dose level High): 608.4 x10_4/ul
- Ret (10 mg/kg, 3 h, dose level High): 9.5%
- WBC (10 mg/kg, 3 h, dose level High): 93.6 x10_2/uL
- KIDNEY_L (10 mg/kg, 3 h, dose level High): 0.9 g
- KIDNEY_R (10 mg/kg, 3 h, dose level High): 0.9 g
- KIDNEY_TOTAL (10 mg/kg, 3 h, dose level High): 1.8 g
- LIVER (10 mg/kg, 3 h, dose level High): 8.6 g
- ALP (10 mg/kg, 3 h, dose level High): 1437.2 IU/L
- ALT (10 mg/kg, 3 h, dose level High): 44 IU/L
- AST (10 mg/kg, 3 h, dose level High): 74 IU/L
- BUN (10 mg/kg, 3 h, dose level High): 9.8 mg/dL
- CRE (10 mg/kg, 3 h, dose level High): 0.2 mg/dL
- Ca (10 mg/kg, 3 h, dose level High): 11.2 mg/dL
- Cl (10 mg/kg, 3 h, dose level High): 105.8 meq/L
- DBIL (10 mg/kg, 3 h, dose level High): 0.016 mg/dL
- GLC (10 mg/kg, 3 h, dose level High): 182.8 mg/dL
- IP (10 mg/kg, 3 h, dose level High): 9.7 mg/dL
- K (10 mg/kg, 3 h, dose level High): 4 meq/L
- LDH (10 mg/kg, 3 h, dose level High): 55 IU/L
- PL (10 mg/kg, 3 h, dose level High): 139.8 mg/dL
- RALB (10 mg/kg, 3 h, dose level High): 2.5 g/dL
- TBIL (10 mg/kg, 3 h, dose level High): 0.044 mg/dL
- TC (10 mg/kg, 3 h, dose level High): 73.4 mg/dL
- TP (10 mg/kg, 3 h, dose level High): 5.3 g/dL
- gamma-GTP (10 mg/kg, 3 h, dose level High): 1 IU/L
- TERMINAL_BW (10 mg/kg, 6 h, dose level High): 197 g
- APTT (10 mg/kg, 6 h, dose level High): 16.9 s
- Bas (10 mg/kg, 6 h, dose level High): 0%
- Eos (10 mg/kg, 6 h, dose level High): 1%
- Fbg (10 mg/kg, 6 h, dose level High): 255.2 mg/dL
- Hb (10 mg/kg, 6 h, dose level High): 12.8 g/dL
- Lym (10 mg/kg, 6 h, dose level High): 72%
- MCHC (10 mg/kg, 6 h, dose level High): 33.7%
- MCV (10 mg/kg, 6 h, dose level High): 63 fL
- PT (10 mg/kg, 6 h, dose level High): 12.5 s
- Plat (10 mg/kg, 6 h, dose level High): 110.6 x10_4/uL
- RBC (10 mg/kg, 6 h, dose level High): 605.4 x10_4/ul
- Ret (10 mg/kg, 6 h, dose level High): 9.4%
- WBC (10 mg/kg, 6 h, dose level High): 71.5 x10_2/uL
- KIDNEY_L (10 mg/kg, 6 h, dose level High): 0.9 g
- KIDNEY_R (10 mg/kg, 6 h, dose level High): 0.9 g
- KIDNEY_TOTAL (10 mg/kg, 6 h, dose level High): 1.8 g
- LIVER (10 mg/kg, 6 h, dose level High): 8 g
- ALP (10 mg/kg, 6 h, dose level High): 1644.6 IU/L
- ALT (10 mg/kg, 6 h, dose level High): 39.6 IU/L
- AST (10 mg/kg, 6 h, dose level High): 78.6 IU/L
- BUN (10 mg/kg, 6 h, dose level High): 7.6 mg/dL
- CRE (10 mg/kg, 6 h, dose level High): 0.2 mg/dL
- Ca (10 mg/kg, 6 h, dose level High): 10.7 mg/dL
- Cl (10 mg/kg, 6 h, dose level High): 108.8 meq/L
- DBIL (10 mg/kg, 6 h, dose level High): 0.018 mg/dL
- IP (10 mg/kg, 6 h, dose level High): 10.5 mg/dL
- LDH (10 mg/kg, 6 h, dose level High): 42.8 IU/L
- Na (10 mg/kg, 6 h, dose level High): 145 meq/L
- PL (10 mg/kg, 6 h, dose level High): 115.6 mg/dL
- RALB (10 mg/kg, 6 h, dose level High): 2.6 g/dL
- TBIL (10 mg/kg, 6 h, dose level High): 0.042 mg/dL
- TC (10 mg/kg, 6 h, dose level High): 58.8 mg/dL
- TP (10 mg/kg, 6 h, dose level High): 5.4 g/dL
- gamma-GTP (10 mg/kg, 6 h, dose level High): 1 IU/L
- TERMINAL_BW (10 mg/kg, 9 h, dose level High): 194.6 g
- APTT (10 mg/kg, 9 h, dose level High): 15.5 s
- Bas (10 mg/kg, 9 h, dose level High): 0.2%
- Eos (10 mg/kg, 9 h, dose level High): 1%
- Fbg (10 mg/kg, 9 h, dose level High): 262.8 mg/dL
- Hb (10 mg/kg, 9 h, dose level High): 13.1 g/dL
- Ht (10 mg/kg, 9 h, dose level High): 39%
- Lym (10 mg/kg, 9 h, dose level High): 72%
- MCH (10 mg/kg, 9 h, dose level High): 21.6 pg
- MCHC (10 mg/kg, 9 h, dose level High): 33.6%
- MCV (10 mg/kg, 9 h, dose level High): 64.5 fL
- PT (10 mg/kg, 9 h, dose level High): 12.8 s
- Plat (10 mg/kg, 9 h, dose level High): 104.1 x10_4/uL
- RBC (10 mg/kg, 9 h, dose level High): 606 x10_4/ul
- Ret (10 mg/kg, 9 h, dose level High): 8.6%
- WBC (10 mg/kg, 9 h, dose level High): 82.4 x10_2/uL
- KIDNEY_L (10 mg/kg, 9 h, dose level High): 0.9 g
- KIDNEY_R (10 mg/kg, 9 h, dose level High): 0.8 g
- KIDNEY_TOTAL (10 mg/kg, 9 h, dose level High): 1.7 g
- LIVER (10 mg/kg, 9 h, dose level High): 7.2 g
- ALP (10 mg/kg, 9 h, dose level High): 1741.8 IU/L
- ALT (10 mg/kg, 9 h, dose level High): 40.8 IU/L
- AST (10 mg/kg, 9 h, dose level High): 76.8 IU/L
- BUN (10 mg/kg, 9 h, dose level High): 8 mg/dL
- CRE (10 mg/kg, 9 h, dose level High): 0.2 mg/dL
- Ca (10 mg/kg, 9 h, dose level High): 10.5 mg/dL
- Cl (10 mg/kg, 9 h, dose level High): 109 meq/L
- DBIL (10 mg/kg, 9 h, dose level High): 0.018 mg/dL
- GLC (10 mg/kg, 9 h, dose level High): 188.2 mg/dL
- IP (10 mg/kg, 9 h, dose level High): 10.1 mg/dL
- K (10 mg/kg, 9 h, dose level High): 3.7 meq/L
- LDH (10 mg/kg, 9 h, dose level High): 40.6 IU/L
- Na (10 mg/kg, 9 h, dose level High): 146 meq/L
- PL (10 mg/kg, 9 h, dose level High): 90.6 mg/dL
- RALB (10 mg/kg, 9 h, dose level High): 2.4 g/dL
- TBIL (10 mg/kg, 9 h, dose level High): 0.046 mg/dL
- TC (10 mg/kg, 9 h, dose level High): 41.6 mg/dL
- TP (10 mg/kg, 9 h, dose level High): 5.2 g/dL
- TERMINAL_BW [1]: 197.9 g
- Bas [1]: 0%
- Eos [1]: 1%
- Fbg [1]: 203.8 mg/dL
- Hb [1]: 12.9 g/dL
- Ht [1]: 38%
- Lym [1]: 78.4%
- MCH [1]: 22 pg
- MCHC [1]: 34%
- MCV [1]: 64.6 fL
- Mono [1]: 4.4%
- Plat [1]: 110.8 x10_4/uL
- RBC [1]: 589.2 x10_4/ul
- Ret [1]: 8.5%
- WBC [1]: 92.3 x10_2/uL
- KIDNEY_L [1]: 0.9 g
- KIDNEY_R [1]: 0.9 g
- KIDNEY_TOTAL [1]: 1.8 g
- LIVER [1]: 9.4 g
- ALP [1]: 1883.2 IU/L
- ALT [1]: 42.8 IU/L
- AST [1]: 71.6 IU/L
- BUN [1]: 9 mg/dL
- CRE [1]: 0.2 mg/dL
- Ca [1]: 10.7 mg/dL
- Cl [1]: 108.8 meq/L
- DBIL [1]: 0.018 mg/dL
- IP [1]: 7 mg/dL
- K [1]: 4 meq/L
- LDH [1]: 54.6 IU/L
- PL [1]: 86.6 mg/dL
- RALB [1]: 2.5 g/dL
- TBIL [1]: 0.042 mg/dL
- TC [1]: 32.4 mg/dL
- TP [1]: 5.2 g/dL
- gamma-GTP [1]: 1 IU/L

Reference: ChEMBL document CHEMBL3885861, “Open TG-GATES”
